pEC50: −log10 of the molar value.
Tested on: PKC mediated IL-2 production
Test: IL-2 ELISA, human primary T cell, anti CD3+CD28+
Format: cell-based
Conditions: human primary T cells stimulated with αCD3 and αCD28, 24 hours
Procedure, shortened: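 Human peripheral blood T cells, pre-expanded with αCD3/αCD28 and IL-2 and then washed free of IL-2, were pre-incubated with compound for 1 h at 37° C. They were then stimulated on plates coated with […] αCD3 and 5 μg/ml αCD28, or with 0.5 ng/ml PMA plus 0.1 uM ionomycin in the counter assay. IL-2 in supernatants was measured by ELISA after 24 h.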

| Structure (SMILES) | pEC50 (Homo sapiens, T-cell, 24 h) | pEC50 |
| --- | --- | --- |
| Cn1nnn(-c2cc(Nc3ncc(F)c(N[C@@H]4C[C@@H]5CCCN5C(C)(C)C4)n3)c(F)cc2OCC(O)CO)c1=O (stereo partly drawn) [Compound 199, 1-(2-(2,3-dihydroxypropoxy)-5-((4-(((7R,8aS)-5,5-dimethyloctahydroindolizin-7-yl)amino)-5-fluoropyrimidin-2-yl)amino)-4-fluorophenyl)-4-methyl-1,4-dihydro-5H-tetrazol-5-one] | 6.00 to 6.30 | – |
| Cc1ccc(Nc2ncc(F)c(N[C@@H]3C[C@@H]4CCCN4C(C)(C)C3)n2)cc1-n1nnnc1SCCO [Compound 282, 2-(1-(5-(4-((7R,8aS)-octahydro-5,5-dimethylindolizin-7-ylamino)-5-fluoropyrimidin-2-ylamino)-2-methylphenyl)-1H-tetrazol-5-ylthio)ethanol] | > 7.00 | – |
| CN1CCN(c2ccc(Nc3ncc(F)c(N[C@@H]4C[C@@H]5CCCN5C(C)(C)C4)n3)cc2C#N)CC1 [Compound 108, 5-((4-(((7R,8aS)-5,5-dimethyloctahydroindolizin-7-yl)amino)-5-fluoropyrimidin-2-yl)amino)-2-(4-methylpiperazin-1-yl)benzonitrile] | > 7.00 | – |
| CCOC(=O)C(C)Oc1cc(F)c(Nc2ncc(F)c(N[C@@H]3C[C@@H]4CCCN4C(C)(C)C3)n2)cc1-n1nnn(C)c1=O (stereo partly drawn) [Compound 184, ethyl 2-(4-((4-(((7R,8aS)-5,5-dimethyloctahydroindolizin-7-yl)amino)-5-fluoropyrimidin-2-yl)amino)-5-fluoro-2-(4-methyl-5-oxo-4,5-dihydro-1H-tetrazol-1-yl)phenoxy)propanoate] | 6.30 to 7.00 | – |
| COc1cc(Nc2ncc(Cl)c(N[C@@H]3C[C@@H]4CCCN4C(C)(C)C3)n2)cc(OC)c1OC [Compound 183, 5-chloro-N4-((7R,8aS)-5,5-dimethyloctahydroindolizin-7-yl)-N2-(3,4,5-trimethoxyphenyl)pyrimidine-2,4-diamine] | 5.00 to 6.00 | – |
| CO[C@@H](C)COc1cc(F)c(Nc2ncc(Cl)c(N[C@@H]3C[C@@H]4CCCN4C(C)(C)C3)n2)cc1-n1nnn(C)c1=O [Compound 238, 1-(5-((5-chloro-4-(((7R,8aS)-5,5-dimethyloctahydroindolizin-7-yl)amino)pyrimidin-2-yl)amino)-4-fluoro-2-((S)-2-methoxypropoxy)phenyl)-4-methyl-1,4-dihydro-5H-tetrazol-5-one] | 6.00 to 6.30 | – |
| Cc1nnnn1-c1cc(Nc2ncc(Cl)c(N[C@@H]3C[C@@H]4CCCN4C(C)(C)C3)n2)ccc1F [Compound 149, 5-chloro-N4-((7R,8aS)-5,5-dimethyloctahydroindolizin-7-yl)-N2-(4-fluoro-3-(5-methyl-1H-tetrazol-1-yl)phenyl)pyrimidine-2,4-diamine] | > 7.00 | – |
| Cn1nnn(-c2cc(Nc3ncc(F)c(N[C@@H]4C[C@@H]5CCCN5C(C)(C)C4)n3)c(F)cc2OCCN)c1=O [Compound 231, 1-(2-(2-aminoethoxy)-5-((4-(((7R,8aS)-5,5-dimethyloctahydroindolizin-7-yl)amino)-5-fluoropyrimidin-2-yl)amino)-4-fluorophenyl)-4-methyl-1,4-dihydro-5H-tetrazol-5-one] | – | 6.00 to 6.30 |
| Cn1nnn(-c2cc(Nc3ncc(F)c(N[C@@H]4C[C@@H]5CCCN5C(C)(C)C4)n3)ccc2OC2CCOCC2)c1=O (stereo in doubt) [Compound 52, 1-(5-(5-fluoro-4-(octahydro-5,5-dimethylindolizin-7-ylamino)pyrimidin-2-ylamino)-2-(tetrahydro-2H-pyran-4-yloxy)phenyl)-4-methyl-1H-tetrazol-5(4H)-one] | 6.30 to 7.00 | – |
| CCc1cc(F)c(Nc2ncc(F)c(N[C@@H]3C[C@@H]4CCCN4C(C)(C)C3)n2)cc1-n1nnn(C)c1=O [Compound 95, 1-(5-(4-((7R,8aS)-octahydro-5,5-dimethylindolizin-7-ylamino)-5-fluoropyrimidin-2-ylamino)-2-ethyl-4-fluorophenyl)-4-methyl-1H-tetrazol-5(4H)-one] | > 7.00 | – |
| Cn1nnn(-c2cc(Nc3ncc(F)c(NC4CC5CCCN5C(C)(C)C4)n3)ccc2OC2CCOCC2)c1=O (stereo not drawn) [Compound 51, 1-(5-(5-fluoro-4-(octahydro-5,5-dimethylindolizin-7-ylamino)pyrimidin-2-ylamino)-2-(tetrahydro-2H-pyran-4-yloxy)phenyl)-4-methyl-1H-tetrazol-5(4H)-one] | 6.30 to 7.00 | – |
| Cc1nnnn1-c1cc(Nc2ncc(F)c(N[C@@H]3C[C@@H]4CCCN4C(C)(C)C3)n2)c(F)cc1O [Compound 252, 4-(4-((7R,8aS)-octahydro-5,5-dimethylindolizin-7-ylamino)-5-fluoropyrimidin-2-ylamino)-5-fluoro-2-(5-methyl-1H-tetrazol-1-yl)phenol] | 5.00 to 6.00 | – |
| CC1(C)C[C@H](Nc2nc(Nc3cc(-n4nnnc4C4CC4)c(O)cc3F)ncc2F)C[C@@H]2CCCN21 [Compound 256, 4-(4-((7R,8aS)-octahydro-5,5-dimethylindolizin-7-ylamino)-5-fluoropyrimidin-2-ylamino)-2-(5-cyclopropyl-1H-tetrazol-1-yl)-5-fluorophenol] | 5.00 to 6.00 | – |
| COc1ccc(Nc2ncc(F)c(N[C@H]3CCN4[C@@H](CCC4(C)C)C3)n2)cc1OC(F)F [Compound 299, N2-(3-(Difluoromethoxy)-4-methoxyphenyl)-N4-((7S,8aS)-3,3-dimethyloctahydroindolizin-7-yl)-5-fluoropyrimidine-2,4-diamine] | 6.30 to 7.00 | – |
| CN1C(=O)C(C)(C)Oc2ccc(Nc3ncc(F)c(N[C@@H]4C[C@@H]5CCCN5C(C)(C)C4)n3)cc21 [Compound 318] | 6.00 to 6.30 | – |
| Cc1ccc(Nc2ncc(F)c(N[C@@H]3C[C@@H]4CCCN4C(C)(C)C3)n2)cc1-n1nnn(CC(C)(C)O)c1=O [Compound 289, 1-(5-(4-((7R,8aS)-octahydro-5,5-dimethylindolizin-7-ylamino)-5-fluoropyrimidin-2-ylamino)-2-methylphenyl)-4-(2-hydroxy-2-methylpropyl)-1H-tetrazol-5(4H)-one] | > 7.00 | – |
| COCCOCCOc1cc(F)c(Nc2ncc(F)c(N[C@@H]3C[C@@H]4CCCN4C(C)(C)C3)n2)cc1-n1nnn(C)c1=O [Compound 198, 1-(5-((4-(((7R,8aS)-5,5-dimethyloctahydroindolizin-7-yl)amino)-5-fluoropyrimidin-2-yl)amino)-4-fluoro-2-(2-(2-methoxyethoxy)ethoxy)phenyl)-4-methyl-1,4-dihydro-5H-tetrazol-5-one] | 5.00 to 6.00 | – |
| Cc1nnnn1-c1cc(Nc2ncc(F)c(N[C@@H]3C[C@@H]4CCCN4C(C)(C)C3)n2)ccc1F [Compound 141, N4-((7R,8aS)-5,5-dimethyloctahydroindolizin-7-yl)-5-fluoro-N2-(4-fluoro-3-(5-methyl-1H-tetrazol-1-yl)phenyl)pyrimidine-2,4-diamine] | > 7.00 | – |
| CC1(C)C[C@H](Nc2nc(Nc3ccc(Cl)c(-n4nnnc4C4CC4)c3)ncc2F)C[C@@H]2CCCN21 [Compound 145, N2-(4-chloro-3-(5-cyclopropyl-1H-tetrazol-1-yl)phenyl)-N4-((7R,8aS)-5,5-dimethyloctahydroindolizin-7-yl)-5-fluoropyrimidine-2,4-diamine] | > 7.00 | – |
| CC1C(Nc2nc(Nc3cc(N(C)C(=O)N(C)C)c(C4CC4)cc3F)ncc2F)CC(C)(C)N2CCCC12 (stereo not drawn) [Compound 74] | – | 6.30 to 7.00 |
| Cn1nnn(-c2cc(Nc3ncc(F)c(N[C@@H]4C[C@@H]5C[C@@H](O)CN5C(C)(C)C4)n3)c(F)cc2C2CC2)c1=O [Compound 68, 1-(5-(4-((2R,7R,8aR)-2-hydroxy-octahydro-5,5-dimethylindolizin-7-ylamino)-5-fluoropyrimidin-2-ylamino)-2-cyclopropyl-4-fluorophenyl)-4-methyl-1H-tetrazol-5(4H)-one] | 6.30 to 7.00 | – |
| Cn1nnn(-c2cc(Nc3ncc(C#N)c(N[C@@H]4C[C@@H]5CCCN5C(C)(C)C4)n3)c(F)cc2OC2COC2)c1=O [Compound 113, 4-(((7R,8aS)-5,5-dimethyloctahydroindolizin-7-yl)amino)-2-((2-fluoro-5-(4-methyl-5-oxo-4,5-dihydro-1H-tetrazol-1-yl)-4-(oxetan-3-yloxy)phenyl)amino)pyrimidine-5-carbonitrile] | 6.30 to 7.00 | – |
| COc1ccc(Nc2ncc(F)c(N[C@@H]3C[C@@H]4CCCN4C(C)(C)C3)n2)cc1-n1nn[nH]c1=O [Compound 277, 1-(5-(4-((7R,8aS)-octahydro-5,5-dimethylindolizin-7-ylamino)-5-fluoropyrimidin-2-ylamino)-2-methoxyphenyl)-1H-tetrazol-5(4H)-one] | < 5.00 | – |
| CC1(C)C[C@H](Nc2nc(Nc3ccc(N4CC5(COC5)C4)c(C#N)c3)ncc2F)C[C@@H]2CCCN21 [Compound 101, 5-(4-((7R,8aS)-5,5-dimethyloctahydroindolizin-7-ylamino)-5-fluoropyrimidin-2-ylamino)-2-(2-oxa-6-azaspiro[3.3]heptan-6-yl)benzonitrile] | 6.30 to 7.00 | – |
| [2H]C([2H])(O)C([2H])([2H])Oc1ccc(Nc2ncc(F)c(N[C@@H]3C[C@@H]4CCCN4C(C)(C)C3)n2)cc1C#N [Compound 210, 5-((4-(((7R,8aS)-5,5-dimethyloctahydroindolizin-7-yl)amino)-5-fluoropyrimidin-2-yl)amino)-2-(2-hydroxyethoxy-1,1,2,2-d4)benzonitrile] | > 7.00 | – |
| CC1(C)C[C@H](Nc2nc(Nc3ccc4c(c3)-n3nnnc3C3(COC3)O4)ncc2F)C[C@@H]2CCCN21 [Compound 126, N^4-((7R,8aS)-5,5-dimethyloctahydroindolizin-7-yl)-5-fluoro-N^2-(spiro[benzo[b]tetrazolo[1,5-d][1,4]oxazine-4,3′-oxetan]-8-yl)pyrimidine-2,4-diamine] | > 7.00 | – |
| COCC1(COC)Oc2ccc(Nc3ncc(F)c(N[C@@H]4C[C@@H]5CCCN5C(C)(C)C4)n3)cc2-n2nnnc21 [Compound 316, N^2-(4,5-dihydro-4,4-bis(methoxymethyl)tetrazolo[5,1-c][1,4]benzoxazin-8-yl)-N^4-((7R,8aS)-octahydro-5,5-dimethylindolizin-7-yl)-5-fluoropyrimidin-2,4-diamine] | > 7.00 | – |

Reference: patent US9682976B2, “Protein kinase C inhibitors and uses thereof” (Rigel Pharmaceuticals, Inc., priority 2012, dated 2017)
